According to US9247759B2, “Identification of human T2R receptors that respond to bitter compounds that elicit the bitter taste in compositions, and the use thereof in assays to identify compounds that inhibit (block) bitter taste in compositions and use thereof” (SENOMYX, INC., priority 2007, dated 2016):
Where two headings read alike, the source gives them in different places.

Experiments:
hT2R14 [1] = target: T1, hT2R14 (Homo sapiens (Human), UniProt Q9NYV8); test: hT2R14 antagonist high-throughput FLIPR assay, stable cell line with G16g44, agonist aristolochic acid; format: cell-based; conditions: read-out: IC50 on hT2R14 bitter receptor
How it was run: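 HEK293 cells stably expressing hT2R14 with chimeric G16g44 were stimulated with aristolochic acid (3 μM), giving 70-80% of maximal receptor activity. Test compounds were added together with the agonist, and antagonism was read as fluorescent calcium signal on FLIPR.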

hT2R7 = hT2R7 (Homo sapiens (Human), UniProt Q9NYW3); test: hT2R panel inhibition, transient HEK293 G16g44, agonist Chloroquine pH6.5 10 mM; format: cell-based; conditions: HEK293, compound at 25 μM
How it was run: (§1)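 The test compound's selectivity was profiled by challenging each transiently expressed human T2R with its activating bitter ligand at an EC80 concentration, inhibition being the reduction of receptor signalling it produced.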

hT2R9 = hT2R9 (Homo sapiens (Human), UniProt Q9NYW1); test: hT2R panel inhibition, transient HEK293 G16g44, agonist Ofloxacin 1 mM; format: cell-based; conditions: HEK293, compound at 25 μM
How it was run: as §1

hT2R13 = hT2R13 (Homo sapiens (Human), UniProt Q9NYV9); test: hT2R panel inhibition, transient HEK293 G16g44, agonist Oxyphenonium 1 mM; format: cell-based; conditions: HEK293, compound at 25 μM
Procedure: Specifically, in order to evaluate the inhibitory selectivity of the Compound C compound, this compound was tested against 22 human T2Rs which were deorphaned by Senomyx. These receptors and the bitter ligands that activate these human T2Rs are reported in earlier patent applications which are incorporated by reference herein. These 22 human T2Rs are hT2R1, 3, 4, 5, 7, 8, 9, 10, 13, 14, 16, 44, 51, 54, 55, 61, 63, 64, 65, 67, 71 and 75. The amino acid and nucleic acid sequences of all of these T2Rs may be found in these earlier patent applications. These human T2Rs were each individually transiently transfected into HEK293 cells that stably express the promiscuous G protein G16g44 and functional assays were effected using these receptors as disclosed in these same patent applications. […] The ligands were used at EC80 concentration levels. The list of bitter ligands utilized and the tested ligand concentrations are contained in Table 5 of this example.
Relating to the foregoing, FIG. 5 contains experimental results wherein Compound C was tested with different agonist compounds. The inhibition activity is represented by the reduction of receptor activity in the presence of Compound C. […] These 13 hT2Rs are hT2R3, 7, 10, 14, 16, 44, 51, 55, 61, 63, 64, 65, and 71.

hT2R14 [2] = target: T1, hT2R14; test: hT2R panel inhibition, transient HEK293 G16g44, agonist Aristolochic Acid 2 μM; format: cell-based; conditions: HEK293, compound at 25 μM
How it was run: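 Each hT2R was transiently transfected into HEK293 cells stably expressing G16g44 and assayed functionally for inhibition of agonist response. Agonists were applied at EC80: andrographolide at 0.5 mM for hT2R8 and aristolochic acid at 2 μM for hT2R14.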

hT2R44 = test: hT2R panel inhibition, transient HEK293 G16g44, agonist Denatonium 0.5 μM; format: cell-based, human; conditions: compound at 25 μM; for screening result against bitter receptor 44: receptor activated to EC80 with the corresponding agonist
How it was run: as §1

hT2R61 = hT2R61 (Homo sapiens (Human), UniProt P59537); test: hT2R panel inhibition, transient HEK293 G16g44, agonist Aristolochic Acid 25 nM; format: cell-based; conditions: HEK293, compound at 25 μM
How it was run: as §1

hT2R63 = test: hT2R panel inhibition, transient HEK293 G16g44, agonist Caffeine 1 mM or Andrographolide 100 μM; format: cell-based, human; conditions: compound at 25 μM; for screening result against bitter receptor 63: receptor activated to EC80 with the corresponding agonist
How it was run: as §1

hT2R3 = hT2R3 (Homo sapiens (Human), UniProt Q9NYW6); test: hT2R panel inhibition, transient HEK293 G16g44, agonist Chloroquine pH6.5 50 μM; format: cell-based; conditions: HEK293, compound at 25 μM; receptor activated to EC80 with the corresponding agonist; read-out: screening result against bitter receptor 3
How it was run: as §1

hT2R5 = hT2R5 (Homo sapiens (Human), UniProt Q9NYW4); test: hT2R panel inhibition, transient HEK293 G16g44, agonist Picoline 10 mM; format: cell-based; conditions: HEK293, compound at 25 μM; receptor activated to EC80 with the corresponding agonist; read-out: screening result against bitter receptor 5
How it was run: as §1

hT2R10 = hT2R10 (Homo sapiens (Human), UniProt Q9NYW0); test: hT2R panel inhibition, transient HEK293 G16g44, agonist Strychnine 50 μM; format: cell-based; conditions: HEK293, read-out: screening result against bitter receptor 10, compound at 25 μM; receptor activated to EC80 with the corresponding agonist
hT2R16 = hT2R16 (Homo sapiens (Human), UniProt Q9NYV7); test: hT2R panel inhibition, transient HEK293 G16g44, agonist Salicin 1 mM; format: cell-based; conditions: HEK293, compound at 25 μM; receptor activated to EC80 with the corresponding agonist; read-out: screening result against bitter receptor 16
How it was run: as §1

hT2R55 = test: hT2R panel inhibition, transient HEK293 G16g44, agonist Cinchonine 150 μM; format: cell-based, human; conditions: compound at 25 μM; receptor activated to EC80 with the corresponding agonist
How it was run: as §1

hT2R64 = hT2R64 (Homo sapiens (Human), UniProt P59538); test: hT2R panel inhibition, transient HEK293 G16g44, agonist Aristolochic Acid 1 μM; format: cell-based; conditions: HEK293, compound at 25 μM; receptor activated to EC80 with the corresponding agonist; read-out: screening result against bitter receptor 64
How it was run: as §1

hT2R65 = test: hT2R panel inhibition, transient HEK293 G16g44, agonist Oleuropein 1 mM; format: cell-based, human; conditions: compound at 25 μM; receptor activated to EC80 with the corresponding agonist
How it was run: as §1

hT2R71 = hT2R71 (Homo sapiens (Human), UniProt P59536); test: hT2R panel inhibition, transient HEK293 G16g44, agonist Picric Acid 10 μM; format: cell-based; conditions: HEK293, compound at 25 μM; receptor activated to EC80 with the corresponding agonist; read-out: screening result against bitter receptor 71
How it was run: as §1

hT2R75 = hT2R75 (Homo sapiens (Human), UniProt P59540); test: hT2R panel inhibition, transient HEK293 G16g44, agonist Strychnine 1 μM; format: cell-based; conditions: HEK293, read-out: screening result against bitter receptor 75, compound at 25 μM; receptor activated to EC80 with the corresponding agonist
hT2R51 = hT2R51 (Homo sapiens (Human), UniProt P59533); test: hT2R panel inhibition, transient HEK293 G16g44, agonist Prop 2.5 μM; format: cell-based; conditions: HEK293, compound at 25 μM; receptor activated to EC80 with the corresponding agonist; read-out: screening result against bitter receptor 51
How it was run: as §1

[3] = receptor activated to EC80 with agonist
[4] = receptor activated to EC80 with the corresponding agonist, read-out: screening result against bitter receptor 7
[5] = receptor activated to EC80 with the corresponding agonist, read-out: screening result against bitter receptor 9
[6] = receptor activated to EC80 with the corresponding agonist, read-out: screening result against bitter receptor 13
[7] = receptor activated to EC80 with the corresponding agonist, read-out: screening result against bitter receptor 14

Chain of hT2R13 (Q9NYV9 whole entry): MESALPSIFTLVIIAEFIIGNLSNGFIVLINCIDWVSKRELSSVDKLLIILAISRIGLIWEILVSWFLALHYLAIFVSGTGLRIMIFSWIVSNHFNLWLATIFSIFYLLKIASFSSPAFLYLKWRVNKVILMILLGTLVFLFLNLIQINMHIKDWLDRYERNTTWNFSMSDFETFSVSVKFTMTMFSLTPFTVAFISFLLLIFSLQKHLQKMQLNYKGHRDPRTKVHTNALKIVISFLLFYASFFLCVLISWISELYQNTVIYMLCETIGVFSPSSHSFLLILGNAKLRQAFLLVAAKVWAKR
Chain of hT2R9 (Q9NYW1 whole entry): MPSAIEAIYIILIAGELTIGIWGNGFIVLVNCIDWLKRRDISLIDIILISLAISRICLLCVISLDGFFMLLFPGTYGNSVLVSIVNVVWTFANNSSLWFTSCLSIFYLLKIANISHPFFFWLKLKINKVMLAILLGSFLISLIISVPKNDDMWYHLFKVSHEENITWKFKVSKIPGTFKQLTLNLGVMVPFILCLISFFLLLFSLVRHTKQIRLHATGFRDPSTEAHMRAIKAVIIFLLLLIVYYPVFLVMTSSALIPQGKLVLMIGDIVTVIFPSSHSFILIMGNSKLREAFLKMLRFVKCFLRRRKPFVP
Chain of hT2R7 (Q9NYW3 whole entry): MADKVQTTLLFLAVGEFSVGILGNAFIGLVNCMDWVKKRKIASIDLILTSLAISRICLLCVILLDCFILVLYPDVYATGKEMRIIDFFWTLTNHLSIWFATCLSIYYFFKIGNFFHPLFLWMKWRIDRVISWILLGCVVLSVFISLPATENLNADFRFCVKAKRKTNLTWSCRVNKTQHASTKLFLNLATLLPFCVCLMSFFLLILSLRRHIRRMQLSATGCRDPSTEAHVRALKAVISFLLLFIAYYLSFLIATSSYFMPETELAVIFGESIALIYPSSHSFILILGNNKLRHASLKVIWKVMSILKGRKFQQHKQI
T1 sequence (Q9NYV8 whole entry): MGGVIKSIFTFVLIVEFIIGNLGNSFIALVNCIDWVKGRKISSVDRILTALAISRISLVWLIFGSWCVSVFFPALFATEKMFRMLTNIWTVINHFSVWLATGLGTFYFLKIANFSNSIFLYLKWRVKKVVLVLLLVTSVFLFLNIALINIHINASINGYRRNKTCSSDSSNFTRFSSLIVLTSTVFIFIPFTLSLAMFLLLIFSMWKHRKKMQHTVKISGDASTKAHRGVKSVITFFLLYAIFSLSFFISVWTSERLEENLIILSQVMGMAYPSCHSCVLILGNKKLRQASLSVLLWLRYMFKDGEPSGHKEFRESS
Chain of hT2R10 (Q9NYW0 whole entry): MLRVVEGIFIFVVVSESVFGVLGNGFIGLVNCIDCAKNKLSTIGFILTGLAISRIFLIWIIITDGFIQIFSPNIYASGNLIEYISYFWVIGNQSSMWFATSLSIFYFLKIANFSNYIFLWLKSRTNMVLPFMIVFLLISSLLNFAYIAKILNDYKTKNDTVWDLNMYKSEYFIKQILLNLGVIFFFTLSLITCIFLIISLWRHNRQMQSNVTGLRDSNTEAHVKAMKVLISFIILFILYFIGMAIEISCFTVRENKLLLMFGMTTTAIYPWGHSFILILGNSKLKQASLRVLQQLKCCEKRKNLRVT
Chain of hT2R16 (Q9NYV7 whole entry): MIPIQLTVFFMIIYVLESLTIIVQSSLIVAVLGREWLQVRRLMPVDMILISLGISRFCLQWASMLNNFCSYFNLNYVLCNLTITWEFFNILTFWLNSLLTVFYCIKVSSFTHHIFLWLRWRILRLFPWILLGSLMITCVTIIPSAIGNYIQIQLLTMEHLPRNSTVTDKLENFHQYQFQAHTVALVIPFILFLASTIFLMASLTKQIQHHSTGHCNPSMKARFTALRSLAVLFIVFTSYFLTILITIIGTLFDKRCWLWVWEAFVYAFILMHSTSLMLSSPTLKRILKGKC
Chain of hT2R64 (P59538 whole entry): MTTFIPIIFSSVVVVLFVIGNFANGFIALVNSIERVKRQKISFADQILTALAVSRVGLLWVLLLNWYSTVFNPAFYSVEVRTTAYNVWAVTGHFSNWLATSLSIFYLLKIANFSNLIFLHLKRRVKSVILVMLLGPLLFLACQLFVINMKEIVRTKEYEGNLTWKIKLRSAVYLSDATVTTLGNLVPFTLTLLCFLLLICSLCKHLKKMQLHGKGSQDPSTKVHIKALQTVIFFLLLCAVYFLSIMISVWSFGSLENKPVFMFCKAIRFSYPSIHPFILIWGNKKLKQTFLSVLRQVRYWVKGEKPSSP
Chain of hT2R71 (P59536 whole entry): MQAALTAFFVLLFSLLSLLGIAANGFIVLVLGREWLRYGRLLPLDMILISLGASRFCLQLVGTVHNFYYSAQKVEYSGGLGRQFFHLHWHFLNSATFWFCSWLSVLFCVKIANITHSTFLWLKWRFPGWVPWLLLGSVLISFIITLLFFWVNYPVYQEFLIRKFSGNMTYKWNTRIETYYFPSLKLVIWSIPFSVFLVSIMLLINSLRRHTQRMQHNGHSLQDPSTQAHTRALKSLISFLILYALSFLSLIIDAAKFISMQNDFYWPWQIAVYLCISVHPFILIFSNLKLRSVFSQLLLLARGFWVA
Chain of hT2R75 (P59540 whole entry): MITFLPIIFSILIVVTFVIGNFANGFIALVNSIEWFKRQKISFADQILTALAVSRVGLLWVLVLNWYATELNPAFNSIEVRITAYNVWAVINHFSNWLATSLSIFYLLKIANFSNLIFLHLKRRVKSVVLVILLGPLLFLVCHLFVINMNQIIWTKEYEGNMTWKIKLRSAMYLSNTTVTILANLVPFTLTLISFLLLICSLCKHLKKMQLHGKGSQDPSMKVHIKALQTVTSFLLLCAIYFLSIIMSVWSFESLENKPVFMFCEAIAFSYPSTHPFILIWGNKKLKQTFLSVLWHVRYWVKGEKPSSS
Chain of hT2R61 (P59537 whole entry): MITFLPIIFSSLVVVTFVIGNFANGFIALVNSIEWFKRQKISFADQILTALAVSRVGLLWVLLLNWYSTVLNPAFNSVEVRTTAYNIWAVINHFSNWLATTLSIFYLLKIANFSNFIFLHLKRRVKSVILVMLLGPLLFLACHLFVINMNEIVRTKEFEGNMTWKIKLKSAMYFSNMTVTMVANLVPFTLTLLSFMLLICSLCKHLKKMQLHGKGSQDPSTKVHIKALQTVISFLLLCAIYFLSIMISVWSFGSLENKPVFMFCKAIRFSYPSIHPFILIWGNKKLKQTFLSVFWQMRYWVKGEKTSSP
Chain of hT2R3 (Q9NYW6 whole entry): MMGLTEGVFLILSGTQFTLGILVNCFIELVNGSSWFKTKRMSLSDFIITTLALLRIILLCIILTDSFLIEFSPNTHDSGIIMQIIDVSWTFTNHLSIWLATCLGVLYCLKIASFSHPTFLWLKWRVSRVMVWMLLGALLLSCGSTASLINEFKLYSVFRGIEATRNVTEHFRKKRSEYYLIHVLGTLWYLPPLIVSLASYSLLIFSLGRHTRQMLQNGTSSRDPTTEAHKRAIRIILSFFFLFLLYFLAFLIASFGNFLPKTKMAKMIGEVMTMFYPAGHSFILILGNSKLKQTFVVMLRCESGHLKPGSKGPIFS
Chain of hT2R5 (Q9NYW4 whole entry): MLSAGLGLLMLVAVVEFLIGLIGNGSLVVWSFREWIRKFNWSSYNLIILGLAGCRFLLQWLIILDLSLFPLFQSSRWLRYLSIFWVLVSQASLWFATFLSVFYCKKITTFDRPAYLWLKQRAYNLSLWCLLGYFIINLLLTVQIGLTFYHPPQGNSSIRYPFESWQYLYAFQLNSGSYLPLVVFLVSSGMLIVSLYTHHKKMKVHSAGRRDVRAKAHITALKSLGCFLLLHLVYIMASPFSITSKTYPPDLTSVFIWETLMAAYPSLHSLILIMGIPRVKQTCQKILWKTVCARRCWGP
Chain of hT2R51 (P59533 whole entry): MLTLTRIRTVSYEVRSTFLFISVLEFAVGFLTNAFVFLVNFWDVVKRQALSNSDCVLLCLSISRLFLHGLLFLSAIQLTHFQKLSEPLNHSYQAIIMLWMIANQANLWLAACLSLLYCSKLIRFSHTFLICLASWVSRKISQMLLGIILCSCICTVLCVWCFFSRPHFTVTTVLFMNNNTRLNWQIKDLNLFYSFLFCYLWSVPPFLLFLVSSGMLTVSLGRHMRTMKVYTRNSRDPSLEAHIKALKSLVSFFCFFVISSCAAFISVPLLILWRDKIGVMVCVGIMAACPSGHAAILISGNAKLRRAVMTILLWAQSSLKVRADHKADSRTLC

| SMILES | IC50 (hT2R14 [1]) | inhibition at 25 µM (hT2R3) | inhibition at 25 µM (hT2R5) | inhibition at 25 µM (hT2R7; [4]) | inhibition at 25 µM (hT2R9; [5]) | inhibition at 25 µM (hT2R10) | inhibition at 25 µM (hT2R13; [6]) | inhibition at 25 µM (hT2R14 [2]; [7]) | inhibition at 25 µM (hT2R16) | screening result against bitter receptor 44 (hT2R44) | screening result against bitter receptor 55 (hT2R55) | screening result against bitter receptor 63 (hT2R63) | inhibition at 25 µM (hT2R64) | inhibition at 25 µM (hT2R71) | inhibition at 25 µM (hT2R75) | other results |
| --- | --- | --- | --- | --- | --- | --- | --- | --- | --- | --- | --- | --- | --- | --- | --- | --- |
| Cn1c(=O)c(=O)n(C)c2cc(S(=O)(=O)Nc3ccc(Cc4ccccn4)cc3)ccc21 [Example 6-4, 1,4-dimethyl-2,3-dioxo-N-(4-(pyridin-2-ylmethyl)phenyl)-1,2,3,4-tetrahydroquinoxaline-6-sulfonamide] | 6.14 µM | – | – | – | – | – | – | – | – | – | – | – | – | – | – | inhibition at 25 µM (hT2R7; receptor activated to EC80 with agonist, read-out: inhibition of bitter receptor 7): 20 to 40%; inhibition at 25 µM (hT2R9; receptor activated to EC80 with agonist, read-out: inhibition of bitter receptor 9): 20 to 40%; inhibition at 25 µM (hT2R13; receptor activated to EC80 with agonist, read-out: inhibition of bitter receptor 13): > 80%; inhibition at 25 µM (hT2R14 [2]; receptor activated to EC80 with agonist, read-out: inhibition of bitter receptor 14): > 80%; inhibition of bitter receptor 44 (hT2R44; [3]): + (20% to 40% inhibition = +); inhibition at 25 µM (hT2R61; receptor activated to EC80 with agonist, read-out: inhibition of bitter receptor 61): 20 to 40%; inhibition of bitter receptor 63 (hT2R63; [3]): + (20% to 40% inhibition = +) |
| Cc1ccc(S(=O)(=O)N(Cc2ccc(F)cc2)CC2CCC(C(=O)O)CC2)cc1 (centres unmarked) [Example 5-20, 4-((N-(4-fluorobenzyl)-4-methylphenylsulfonamido)methyl)-cyclohexanecarboxylic acid] | 0.083 µM | > 80% | 20 to 40% | 20 to 40% | 20 to 40% | 40 to 60% | 20 to 40% | > 80% | 40 to 60% | +++ (60% to 80% inhibition = +++) | ++++ (80% or greater inhibition = ++++) | ++ (40% to 60% inhibition = ++) | 60 to 80% | 40 to 60% | 40 to 60% | inhibition at 25 µM (hT2R61; receptor activated to EC80 with the corresponding agonist, read-out: screening result against bitter receptor 61): > 80%; screening result against bitter receptor 65 (hT2R65): + (20% to 40% inhibition = +) |
| COc1ccc(CN(Cc2ccc(OC)cc2)S(=O)(=O)c2ccc(C(=O)O)cc2)cc1 [Example 5-30, 4-(N,N-bis(4-methoxybenzyl)sulfamoyl)benzoic acid] | 4.14 µM | 40 to 60% | 20 to 40% | 20 to 40% | 20 to 40% | 40 to 60% | 20 to 40% | > 80% | 20 to 40% | +++ (60% to 80% inhibition = +++) | ++++ (80% or greater inhibition = ++++) | ++++ (80% or greater inhibition = ++++) | > 80% | 60 to 80% | 20 to 40% | inhibition at 25 µM (hT2R51): 40 to 60% |
